Measured values reported in patent US9725462B2, “Pyridopyrimidine derivatives as protein kinase inhibitors” (Merck Patent GmbH, priority 2012, dated 2017).
Where a name gives a salt, the structure may show the parent alone.

target: T1, SYK (Homo sapiens, UniProt P43405); experiment: SYK Flash Plate Assay (enzyme assay); assay type: biochemical; conditions: Syk inhibition
T1 construct: 2.5 nM SYK, 400 nM Biotin-Aha-Aha-KEDPDYEWPSAKK
Source text: The following abbreviations refer respectively to the definitions below: • aq (aqueous), h (hour), g (gram), L (liter), mg (milligram), MHz (Megahertz), min. (minute), mm (millimeter), mmol (millimole), mM (millimolar), m.p. (melting point), eq (equivalent), mL (milliliter), L (microliter), ACN (acetonitrile), AcOH (acetic acid), CDCl3 (deuterated chloroform), CD3OD (deuterated methanol), CH3CN (acetonitrile), c-hex (cyclohexane), DCC (dicyclohexyl carbodiimide), DCM (dichloromethane), DIC (diisopropyl carbodiimide), DIEA (diisopropylethyl-amine), DMF (dimethylformamide), DMSO (dimethylsulfoxide), DMSO-d6 (deuterated dimethylsulfoxide), EDC (1-(3-dimethyl-amino-propyl)-3-ethylcarbodiimide), ESI (Electro-spray ionization), EtOAc (ethyl acetate), Et2O (diethyl ether), EtOH (ethanol), HATU (dimethylamino-([1,2,3]triazolo[4,5-b]pyridin-3-yloxy)-methylene]-dimethyl-ammonium hexafluorophosphate), HPLC (High Performance Liquid Chromatography), i-PrOH (2-propanol), K2CO3 (potassium carbonate), LC (Liquid Chromatography), MeOH (methanol), MgSO4 (magnesium sulfate), MS (mass spectrometry), MTBE (Methyl tert-butyl ether), NaHCO3 (sodium bicarbonate), NaBH4 (sodium borohydride), NMM (N-methyl morpholine), NMR (Nuclear Magnetic Resonance), PyBOP (benzotriazole-1-yl-oxy-tris-pyrrolidino-phosphonium hexafluorophosphate), RT (room temperature), Rt (retention time), SPE (solid phase extraction), TBTU (2-(1-H-benzotriazole-1-yl)-1,1,3,3-tetramethyluromium tetrafluoro borate), TEA (triethylamine), TFA (trifluoroacetic acid), THF (tetrahydrofuran), TLC (Thin Layer Chromatography), UV (Ultraviolet). Description of the In Vitro Assays SYK Flash Plate Assay
The kinase assay is performed either as 384-well Flashplate assay (for e.g. Topcount measurement) or as 384-well Image-Flashplate assay (for LEADseeker measurement).
2.5 nM SYK, 400 nM Biotin-Aha-Aha-KEDPDYEWPSAKK
and 10 μM ATP (spiked with 0.3 μCi 33P-ATP/well) are incubated in a total volume of 50 μl (60 mM Hepes, 10 mM MgCl2, 1.2 mM Dithiothreitol, 0.02% Brij35, 0.1% BSA, pH 7.5) with or without test compound for 1 hours at 30° C. The reaction is stopped with 25 μl 200 mM EDTA. After 30 Min at 30° C. the liquid is removed and each well washed thrice with 100 μl 0.9% sodium chloride solution. Non-specific reaction is determined in presence of 0.1 μM Staurosporine. Radioactivity is measured with Topcount (when using Flashplates) or with LEADseeker (when using Image-Flashplates) respectively. Results (e.g. IC50-values) are calculated with program tools provided by the IT-department (e.g. Symyx Assay Explorer, Genedata Screener). In Vivo Assays CIA

**Q.** Which IC50 does the source give for `Cn1cc(-c2cnc(C(F)F)c3cnc(N[C@@H]4CCCC[C@@H]4N)nc23)cn1` [Compound A91, (1R,2S)—N-[5-difluoromethyl-8-(1-methyl-1H-pyrazol-4-yl)-pyrido-[4,3-d]pyrimidin-2-yl]-cyclohexane-1,2-diamine] here?
**A.** 100 to 1000 nM

**Q.** `NC1CCCCC1Nc1ncc2cncc(-c3c[nH]c4c(F)cccc34)c2n1` (stereo not drawn) [Compound A63, cis-N2-[8-(7-Fluoro-1H-indol-3-yl)pyrido[4,3-d]pyrimidin-2-yl]cyclohexane-1,2-diamine] was tested. Which IC50 did it give?
**A.** < 100 nM

**Q.** `N[C@@H]1CCCC[C@@H]1Nc1ncc2cncc(-c3c[nH]c4ccc(F)cc34)c2n1` (stereo in doubt) [Compound A46, (1S,2R)-N-[8-(5-Fluoro-1H-indol-3-yl)-pyrido[4,3-d]pyrimidin-2-yl]-cyclohexane-1,2-diamine] was tested. Which IC50 did it give?
**A.** < 100 nM

**Q.** `CC1(C)CCOc2cc(-c3cncc4cnc(N[C@@H]5CCCC[C@@H]5N)nc34)ccc21` [Compound A29] was tested. Which IC50 did it give?
**A.** 1000 to 50000 nM

**Q.** For `Cc1nn(C)cc1-c1cncc2cnc(N[C@@H]3CCCC[C@@H]3N)nc12` (relative stereo) [Compound A25, cis-N-[8-(1,3-Dimethyl-1H-pyrazol-4-yl)-pyrido[4,3-d]pyrimidin-2-yl]-cyclohexane-1,2-diamine], which IC50 is on record?
**A.** 1000 to 50000 nM

**Q.** For `CC(C)n1cc(-c2cncc3cnc(N[C@@H]4CCCC[C@@H]4N)nc23)cn1` [Compound A26, (1S,2R)-[8-(1-Isopropyl-1H-pyrazol-4-yl)-pyrido[4,3-d]pyrimidin-2-yl]-cyclohexane-1,2-diamine], which IC50 is on record?
**A.** 1000 to 50000 nM

**Q.** With `FC1(CNc2ncc3cncc(-c4c[nH]c5cc(C(F)(F)F)ccc45)c3n2)CCCNC1` (single isomer, unassigned) [Compound A79, (3-fluoro-piperidin-3-ylmethyl)-[8-(6-trifluoromethyl-1H-indol-3-yl)-pyrido[4,3-d]pyrimidin-2-yl]-amine] as the compound, how does the IC50 read?
**A.** 1000 to 50000 nM

**Q.** Which IC50 does the source give for `Cn1cc(-c2cnc(N)c3cnc(N[C@H]4CCCC[C@H]4N)nc23)cn1` (single isomer, unassigned) [Compound A4, N2-((cis)-2-Amino-cyclohexyl)-8-(1-methyl-1H-pyrazol-4-yl)-pyrido[4,3-d]pyrimidine-2,5-diamine] here?
**A.** 1000 to 50000 nM

**Q.** How did the IC50 turn out when `N#Cc1ccc2[nH]c(-c3cnc(N)c4cnc(N[C@@H]5CCCC[C@@H]5N)nc34)cc2c1` (relative stereo) [Compound A23, 2-[5-Amino-2-((cis)-2-amino-cyclohexylamino)-pyrido[4,3-d]-pyrimidin-8-yl]-1H-indole-5-carbonitrile] was run?
**A.** 100 to 1000 nM

**Q.** `Cn1cc(-c2cncc3cnc(N[C@@H]4CCCC[C@@H]4N)nc23)cn1` [Compound A2, (1R,2S)—N-[8-(1-Methyl-1H-pyrazol-4-yl)-pyrido[4,3-d]pyrimidin-2-yl]-cyclohexane-1,2-diamine hydrochloride] was tested. Which IC50 did it give?
**A.** 100 to 1000 nM

**Q.** `Cc1cccc(-c2cncc3cnc(N[C@H]4CCCC[C@H]4N)nc23)c1` (stereo in doubt) [Compound A31, (1S,2R)-N-(8-m-Tolyl-pyrido[4,3-d]pyrimidin-2-yl)-cyclohexane-1,2-diamine] was tested. Which IC50 did it give?
**A.** 100 to 1000 nM

**Q.** `COC[C@H](N)CNc1ncc2cncc(-c3cccc(C)c3)c2n1` [Compound A30, (R)-3-Methoxy-N1-(8-m-tolyl-pyrido[4,3-d]pyrimidin-2-yl)-propane-1,2-diamine] was tested. Which IC50 did it give?
**A.** 1000 to 50000 nM

**Q.** For `N[C@H]1CCCC[C@H]1Nc1ncc2cncc(-c3c[nH]c4cnccc34)c2n1` [Compound A76], which IC50 is on record?
**A.** < 100 nM

**Q.** Which IC50 does the source give for `N[C@H]1CCCC[C@H]1Nc1ncc2c(C(F)F)ncc(-c3c[nH]c4cc(C(F)(F)F)ccc34)c2n1` [Compound A82] here?
**A.** < 100 nM

**Q.** For `Cc1ncc(-c2c[nH]c3cc(C(F)(F)F)ccc23)c2nc(N[C@H]3CCCC[C@H]3N)ncc12` (single isomer, unassigned) [Compound A89], which IC50 is on record?
**A.** < 100 nM

**Q.** Which IC50 does the source give for `N[C@@H]1CCCC[C@@H]1Nc1ncc2cncc(-c3c[nH]c4ccccc34)c2n1` (stereo in doubt) [Compound A27, (1S,2R)-N-[8-(1H-Indol-3-yl)-pyrido[4,3-d]pyrimidin-2-yl]-cyclohexane-1,2-diamine] here?
**A.** < 100 nM

**Q.** Which IC50 does the source give for `N#Cc1ccc2c(-c3cncc4cnc(NC5CCCCC5)nc34)c[nH]c2c1` [Compound A80, 3-(2-cyclohexylamino-pyrido[4,3-d]pyrimidin-8-yl)-1H-indole-6-carbonitrile] here?
**A.** 1000 to 50000 nM

**Q.** How did the IC50 turn out when `Cc1cccc2[nH]c(-c3cncc4cnc(N[C@H]5CCCC[C@H]5N)nc34)cc12` (stereo in doubt) [Compound A66, (1S,2R)-N-[8-(4-Methyl-1H-indol-2-yl)-pyrido[4,3-d]pyrimidin-2-yl]-cyclohexane-1,2-diamine] was run?
**A.** 1000 to 50000 nM

**Q.** `Cn1cc(-c2cnc(N)c3cnc(NCCN)nc23)cn1` [Compound A6, N2-(2-Amino-ethyl)-8-(1-methyl-1H-pyrazol-4-yl)-pyrido[4,3-d]-pyrimidine-2,5-diamine] was tested. Which IC50 did it give?
**A.** 1000 to 50000 nM

**Q.** How did the IC50 turn out when `N#Cc1ccc2c(-c3cnc(C(F)F)c4cnc(N[C@@H]5CCCC[C@@H]5N)nc34)c[nH]c2c1` [Compound A87, 3-[2-((1R,2S)-2-amino-cyclohexylamino)-5-difluoromethyl-pyrido[4,3-d]-pyrimidin-8-yl]-1H-indole-6-carbonitrile] was run?
**A.** < 100 nM

**Q.** How did the IC50 turn out when `COC[C@H](N)CNc1ncc2cncc(-c3c[nH]c4cc(C#N)ccc34)c2n1` [Compound A67, 3-[2-((R)-2-Amino-3-methoxy-propylamino)-pyrido[4,3-d]pyrimidin-8-yl]-1H-indole-6-carbonitrile] was run?
**A.** 1000 to 50000 nM

**Q.** How did the IC50 turn out when `COc1ccc2[nH]c(-c3cnc(N)c4cnc(N[C@@H]5CCCC[C@@H]5N)nc34)cc2c1` (relative stereo) [Compound A19, N2-(cis-2-Amino-cyclohexyl)-8-(5-methoxy-1H-indol-2-yl)-pyrido[4,3-d]pyrimidine-2,5-diamine] was run?
**A.** < 100 nM

**Q.** With `COC[C@H](N)CNc1ncc2cncc(-c3c[nH]c4cc(C(F)(F)F)ccc34)c2n1` [Compound A61, (2R)-3-Methoxy-N1-[8-[6-(trifluoromethyl)-1H-indol-3-yl]pyrido[4,3-d]pyrimidin-2-yl]propane-1,2-diamine] as the compound, how does the IC50 read?
**A.** 1000 to 50000 nM

**Q.** How did the IC50 turn out when `N[C@@H]1CCCC[C@@H]1Nc1ncc2cncc(-c3cc4ccc(F)cc4[nH]3)c2n1` (stereo in doubt) [Compound A42, (1S,2R)-N-[8-(6-Fluoro-1H-indol-2-yl)-pyrido[4,3-d]pyrimidin-2-yl]-cyclohexane-1,2-diamine] was run?
**A.** 1000 to 50000 nM

**Q.** `Cn1cc(-c2cnc(N)c3cnc(N[C@@H]4CCCC[C@@H]4N)nc23)cn1` (single isomer, unassigned) [Compound A1, N2-((cis)-2-Amino-cyclohexyl)-8-(1-methyl-1H-pyrazol-4-yl)-pyrido[4,3-d]-pyrimidine-2,5-diamine] was tested. Which IC50 did it give?
**A.** < 100 nM

**Q.** With `CC(C)C[C@@H](Nc1ncc2cncc(-c3c[nH]c4cc(C#N)ccc34)c2n1)C(N)=O` [Compound A65, (R)-2-[8-(6-Cyano-1H-indol-3-yl)-pyrido[4,3-d]pyrimidin-2-yl-amino]-4-methyl-pentanoic acid amide] as the compound, how does the IC50 read?
**A.** < 100 nM

**Q.** For `Cc1ncc(-c2c[nH]c3cc(C#N)ccc23)c2nc(N[C@H]3CCCC[C@H]3N)ncc12` (relative stereo) [Compound A85, 3-[2-((cis)-2-amino-cyclohexylamino)-5-methyl-pyrido[4,3-d]pyrimidin-8-yl]-1H-indole-6-carbonitrile], which IC50 is on record?
**A.** 100 to 1000 nM

**Q.** `N[C@@H]1CCCC[C@@H]1Nc1ncc2cncc(-c3c[nH]c4cc(C(F)(F)F)ccc34)c2n1` (stereo in doubt) [Compound A41, (1S,2R)-N-[8-(6-Trifluoromethyl-1H-indol-3-yl)-pyrido[4,3-d]pyrimidin-2-yl]-cyclohexane-1,2-diamine] was tested. Which IC50 did it give?
**A.** < 100 nM

**Q.** How did the IC50 turn out when `Nc1ncc(-c2cccc(-n3nccn3)c2)c2nc(N[C@H]3CCCC[C@H]3N)ncc12` (relative stereo) [Compound A3, N2-(cis-2-Amino-cyclohexyl)-8-(3-[1,2,3]triazol-2-yl-phenyl)-pyrido[4,3-d]pyrimidine-2,5-diamine] was run?
**A.** 100 to 1000 nM

**Q.** How did the IC50 turn out when `CC(C)(C)c1ccc(-c2cnc(N)c3cnc(N[C@H]4CCCC[C@H]4N)nc23)cc1` (relative stereo) [Compound A7, N2-(cis-2-Amino-cyclohexyl)-8-(4-tert-butyl-phenyl)-pyrido[4,3-d]pyrimidine-2,5-diamine] was run?
**A.** 1000 to 50000 nM

**Q.** How did the IC50 turn out when `N[C@H]1CCCC[C@H]1Nc1ncc2cncc(-c3ccc4[nH]c(=O)[nH]c4c3)c2n1` [Compound A37, 5-[2-((1R,2S)-2-Amino-cyclohexylamino)-pyrido[4,3-d]pyrimidin-8-yl]-1,3-dihydro-benzimidazol-2-one] was run?
**A.** 1000 to 50000 nM
